Reference: ChEMBL document CHEMBL3994638, “The juxtamembrane region of TrkA kinase is critical for inhibitor selectivity” (Bioorg Med Chem Lett, 2017)

Experiments:
[1] = target: BDNF/NT-3 growth factors receptor (Homo sapiens, UniProt Q16620); test: Inhibition of recombinant human TrkB expressed in DHFR deficient CHO cells assessed as inhibition of human brain-derived neurotrophic factor-induced calcium influx by Fluo-4 AM dye based assay; type: cell-based
[2] = target: T1, High affinity nerve growth factor receptor (Homo sapiens, UniProt P04629); test: Inhibition of juxtamembrane region containing recombinant human N-terminal His6-tagged/GST-tagged TrkA (473 to 796 residues) expressed in baculovirus infected Hi5 cells using TK substrate after 60 mins by HTRF assay
T1 sequence (P04629 whole entry, the tested form may be a part): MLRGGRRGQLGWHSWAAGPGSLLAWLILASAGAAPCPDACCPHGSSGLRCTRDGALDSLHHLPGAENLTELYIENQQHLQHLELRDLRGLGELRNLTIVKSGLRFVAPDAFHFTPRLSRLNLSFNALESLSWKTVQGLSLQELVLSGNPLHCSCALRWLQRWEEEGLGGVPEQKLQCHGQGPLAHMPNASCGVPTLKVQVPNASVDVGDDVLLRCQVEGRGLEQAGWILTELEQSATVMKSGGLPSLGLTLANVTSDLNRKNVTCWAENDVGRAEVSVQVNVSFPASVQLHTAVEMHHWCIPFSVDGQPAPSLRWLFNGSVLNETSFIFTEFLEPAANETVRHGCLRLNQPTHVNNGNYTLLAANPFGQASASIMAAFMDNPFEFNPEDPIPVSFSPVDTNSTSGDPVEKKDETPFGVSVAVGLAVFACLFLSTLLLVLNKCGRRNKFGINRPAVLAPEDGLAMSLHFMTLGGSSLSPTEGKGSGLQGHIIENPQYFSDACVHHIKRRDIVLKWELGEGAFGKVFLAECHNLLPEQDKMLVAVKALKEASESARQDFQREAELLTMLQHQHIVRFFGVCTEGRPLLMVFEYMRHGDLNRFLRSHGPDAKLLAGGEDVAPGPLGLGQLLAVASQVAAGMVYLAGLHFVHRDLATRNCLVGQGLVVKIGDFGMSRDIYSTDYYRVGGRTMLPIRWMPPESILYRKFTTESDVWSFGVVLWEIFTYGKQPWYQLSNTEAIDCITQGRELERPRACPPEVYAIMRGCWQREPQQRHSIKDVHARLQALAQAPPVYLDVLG

[3] = target: T1, High affinity nerve growth factor receptor; test: Inhibition of juxtamembrane region deficient recombinant human N-terminal His6-tagged/GST-tagged TrkA (498 to 796 residues) expressed in baculovirus infected Hi5 cells using TK substrate after 60 mins by HTRF assay
[4] = target: T1, High affinity nerve growth factor receptor; test: Inhibition of recombinant human TrkA expressed in DHFR deficient CHO cells assessed as inhibition of human beta-nerve growth factor-induced calcium influx by Fluo-4 AM dye based assay; type: cell-based
[5] = target: NT-3 growth factor receptor (Homo sapiens, UniProt Q16288); test: Inhibition of recombinant human TrkC expressed in DHFR deficient CHO cells assessed as inhibition of human neurotrophin-3-induced calcium influx by Fluo-4 AM dye based assay; type: cell-based
NT-3 growth factor receptor, sequence (Q16288 whole entry): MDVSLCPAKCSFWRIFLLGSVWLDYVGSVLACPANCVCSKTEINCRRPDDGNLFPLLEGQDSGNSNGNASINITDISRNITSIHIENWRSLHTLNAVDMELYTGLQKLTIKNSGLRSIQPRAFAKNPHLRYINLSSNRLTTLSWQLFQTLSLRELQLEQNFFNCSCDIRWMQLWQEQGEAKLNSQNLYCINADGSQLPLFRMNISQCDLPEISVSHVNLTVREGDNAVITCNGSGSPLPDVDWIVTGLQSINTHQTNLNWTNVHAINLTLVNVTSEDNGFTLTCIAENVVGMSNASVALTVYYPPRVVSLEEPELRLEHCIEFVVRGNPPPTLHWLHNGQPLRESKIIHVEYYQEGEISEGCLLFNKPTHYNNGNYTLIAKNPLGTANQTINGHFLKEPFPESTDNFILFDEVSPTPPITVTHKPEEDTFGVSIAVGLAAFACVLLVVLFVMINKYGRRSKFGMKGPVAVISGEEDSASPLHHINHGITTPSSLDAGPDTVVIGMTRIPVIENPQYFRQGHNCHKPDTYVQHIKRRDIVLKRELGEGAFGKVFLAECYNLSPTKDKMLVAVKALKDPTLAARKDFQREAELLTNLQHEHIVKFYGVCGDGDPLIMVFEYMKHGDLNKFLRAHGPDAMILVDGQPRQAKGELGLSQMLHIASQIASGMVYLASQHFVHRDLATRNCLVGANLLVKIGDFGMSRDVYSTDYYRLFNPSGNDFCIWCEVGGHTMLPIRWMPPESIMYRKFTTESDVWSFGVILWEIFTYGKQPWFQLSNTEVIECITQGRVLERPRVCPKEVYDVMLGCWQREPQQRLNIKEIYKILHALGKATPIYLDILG

BDNF/NT-3 growth factors receptor, sequence (Q16620 whole entry, the tested form may be a part): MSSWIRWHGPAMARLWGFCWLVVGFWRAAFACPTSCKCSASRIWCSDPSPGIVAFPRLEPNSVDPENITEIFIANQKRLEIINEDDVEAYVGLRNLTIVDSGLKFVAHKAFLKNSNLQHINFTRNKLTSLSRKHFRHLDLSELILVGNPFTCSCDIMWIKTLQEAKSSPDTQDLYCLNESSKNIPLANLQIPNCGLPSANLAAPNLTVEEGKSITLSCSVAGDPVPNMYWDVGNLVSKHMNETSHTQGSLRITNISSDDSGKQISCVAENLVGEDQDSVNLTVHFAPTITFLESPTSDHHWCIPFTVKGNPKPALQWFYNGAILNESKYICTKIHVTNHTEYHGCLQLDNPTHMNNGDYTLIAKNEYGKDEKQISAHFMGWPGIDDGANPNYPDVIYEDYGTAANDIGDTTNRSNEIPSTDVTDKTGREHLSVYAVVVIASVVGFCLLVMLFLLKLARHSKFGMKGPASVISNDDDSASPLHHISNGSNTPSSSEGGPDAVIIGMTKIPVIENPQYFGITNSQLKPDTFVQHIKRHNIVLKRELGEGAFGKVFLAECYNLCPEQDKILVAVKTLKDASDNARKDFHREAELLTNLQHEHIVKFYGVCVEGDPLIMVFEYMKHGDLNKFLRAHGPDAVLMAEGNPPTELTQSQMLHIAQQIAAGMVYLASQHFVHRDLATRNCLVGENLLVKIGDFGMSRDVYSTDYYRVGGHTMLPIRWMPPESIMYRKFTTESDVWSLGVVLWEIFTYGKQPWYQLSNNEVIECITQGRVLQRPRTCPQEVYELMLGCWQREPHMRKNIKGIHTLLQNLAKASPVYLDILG

SMILES | IC50 [1] [nM] | IC50 [2] [nM] | IC50 [3] [nM] | IC50 [4] [nM] | IC50 [5] [nM]
COc1cc(-c2cn(CC(=O)Nc3cc(C4CC4)nn3-c3ccccc3)nn2)ccc1-n1cnc(C)c1 | 132 | – | – | – | –
CCOc1nn(-c2ccccc2)c(NC(=O)N[C@@H]2CN(CCOC)C[C@H]2c2ccc(F)c(F)c2)c1C | 1300 | 6 | 37200 | 2.7 | 2480
CC(C)Oc1cc(Nc2nc(N[C@@H](C)c3ccc(F)cn3)ncc2Cl)n[nH]1 | 6.8 | – | – | – | 7.2
